# Experimental data reported in patent US20230310441A1, “TREATMENT FOR SCHIZOPHRENIA” (TAKEDA PHARMACEUTICAL COMPANY, priority 2020, published 2023).
# Like-named read-outs stand apart in the source and are kept apart here.
# Tests used:
# [1] = Phase 1 FIH study Part 4: plasma pharmacokinetics in patients with stable schizophrenia; format: in vivo, human
# Protocol: Part 4 was a double-blind, weekly single dosing, parallel group design in patients with stable schizophrenia.
# Participants were randomly assigned 2:1 to receive either Compound (I) or placebo. For the participants receiving Compound (I), a loading dose was administered on Day 1, and a maintenance dose, at half the initial dose, on Days 8, 15, and 22. Participants in the placebo group received placebo on all study dosing days.
# Plasma and urine concentrations of Compound (I) and urine concentrations of cortisol and 6β-hydroxycortisol were measured by high performance liquid chromatography with tandem mass spectrometry. One 4 mL blood sample was collected per scheduled assessment. For participants receiving placebo, blood samples were analyzed only at pre-dose and around the time Cmax occurred (as emerging from the measurements of the first dose group) to ensure that no additional participants could have been on active treatment. Serial urine samples were collected for Part 1 cohorts 1-5 and Part 2 cohorts 1-4. Urine samples for participants receiving placebo were not analyzed. Urine samples were collected for the determination of cortisol and 6β-hydroxycortisol for Part 2 cohorts 1-4 and for all patients in Part 4. Samples for participants randomized to placebo were analyzed for these parameters.
# Pharmacokinetic parameters were determined from the concentration-time profiles for all evaluable participants. Actual sampling times were used in all computations. pharmacokinetic parameters were calculated using non-compartmental analysis using Phoenix WinNonLin v8.0 or SAS v 9.4.
# One participant in the 160/80 mg Compound (I) cohort in Part 4 (MRD study with patients with stable schizophrenia) missed the Day 15 dose. Pharmacokinetic concentrations for Day 22 for this participant were excluded from the mean plasma-concentration time profile and associated pharmacokinetic parameters were excluded from statistical analysis.
# One participant in the 160/80 mg Compound (I) cohort in Part 4 (MRD study with patients with stable schizophrenia) terminated the study following dosing on Day 1. The participant's PK parameters were excluded from statistical analysis.
# Another participant in the 160/80 mg Compound (I) cohort in Part 4 (MRD study with patients with stable schizophrenia) terminated the study following dosing on Day 22. Accordingly, all PK parameters for the participant other than tmax, Cmax, observed plasma concentration at the end of a dosing interval, AUC24, AUC48, and AUC96 were excluded from summary and statistical analysis.
# [2] = Separate single dose oral study: half-life in dogs; conditions: dog, in vivo; single dose oral administration of 5-15 mg/kg
# From the text: The mean t1/2z for Compound (I) reflects the prolonged half-life of Compound (I) in humans. […] In that study, the mean human half-life of Compound (I) (approximately 11 days) was substantially higher than the 2-4 hr mean half-life observed in rats and dogs.
# [3] = Phase 2 crossover study: safety in subjects with stable schizophrenia; format: in vivo, human
# From the text: The safety analysis set consisted of all subjects who were enrolled and received at least 1 dose of study drug. Safety measurements included adverse events, physical examinations, vital signs, clinical laboratory evaluations, ECGs, and C-SSRS.
# [4] = system: ventral striatum activation; experiment: fMRI BOLD ventral striatum activation in the MID Reward Task; format: in vivo, human
# From the text: After a break, subjects took the second block that comprised a battery of imaging tests; namely, brain perfusion using non-contrast arterial spin labeling MRI and fMRI scans which monitor changes in blood oxygen level-dependent (BOLD) signal. The fMRI was run in resting state without a task (resting state fMRI) and with 2 tasks (2-task fMRI) using the monetary incentive delay (MID) Reward Task and a Set-Shifting Task. After a break, subjects took the third block which comprised the Effort Expenditure for Rewards Task and the Empathic Accuracy Task. Subjects also received the Positive and Negative Syndrome Scale (PANSS), the Brief Negative Syndrome Scale (BNSS), and the Clinical Global Impression (CGI) Scales (CGI-Severity and CGI-Improvement) as a part of the PD assessment.
# The BOLD signal in the average of the left and right ventral striatum activation in the MID Reward Task 3.5 h post-dose on Day 1 and the BACS composite score on Day 14 were the primary PD measures.
# The observed BOLD signal was summarized (N, mean, median, SD, minimum, and maximum) by treatment (Compound (I) (overall and by dose) and placebo) and time. The BACS composite score was summarized for baseline, post-dose, and change from baseline by treatment, dose, and time.
# Each of the primary PD measures was analyzed using a Bayesian normal linear model with effects for sequence, period, treatment, time (as a categorical variable), the treatment-by-time interaction, subject within treatment sequence, and baseline (for BACS only). For the BOLD fMRI, the observed value was the response variable in the model. For the BACS, the observed and the change from baseline were modeled separately. Missing values were not imputed and were not included in the model under a missing at random assumption. A diffuse normal distribution with mean zero and variance 106 was used as a prior for the regression coefficients and a diffuse inverse gamma with shape and scale parameters of 0.01 for the residual variance.
# The criteria for a positive result at the IA was 70% posterior probability (or greater) of a difference between Compound (I) and placebo >0.09 in ventral striatum activation in the MID fMRI at 3.5 h post-dose on Day 1 or 70% (or greater) posterior probability of a difference between Compound (I) and placebo >2 points in the BACS composite score at Day 14.
# [5] = stable schizophrenia, oral, 160/80 mg, Day 22, N 14
smiles,measurement,setting,value
"C[C@H](NC(=O)Cn1nnc2ccccc2c1=O)c1ccc(OC(F)(F)F)cc1 [Compound (I), (S)-2-(4-oxobenzo[d][1,2,3]triazin-3(4H)-yl)-N-(1-(4-(trifluoromethoxy)phenyl)ethyl)acetamide]",steady-state mean t1/2z,"[1]; Part 4 MRD, schizophrenia participants",334 h
same,peak systemic exposure lower in schizophrenia participants compared with healthy participants,[1]; Part 4 vs healthy,23-30%
same,total systemic exposure lower for schizophrenia participants compared with healthy participants,[1]; Part 4 vs healthy,22-27%
same,Cmax,"[1]; human, plasma, oral, Part 4 MRD, 160/80 mg, up to 168 h post-dose, read-out: Mean Cmax (SD)",1270 ng/mL
same,Tmax,"[1]; human, plasma, oral, Part 4 MRD, schizophrenia patients, read-out: median tmax",1.8 h
same,AUC(0-t),"[1]; human, plasma, po, stable schizophrenia, oral, 160/80 mg, Day 1, N 15",149 µg·h/mL
same,AUC,"[1]; human, plasma, po, stable schizophrenia, oral, 160/80 mg, Day 1, N 15, read-out: AUC24 (mean)",20.4 µg·h/mL
same,AUC,"[1]; human, plasma, po, stable schizophrenia, oral, 160/80 mg, Day 1, N 15, read-out: AUC96 (mean)",90.4 µg·h/mL
same,AUC,"[1]; human, plasma, po, stable schizophrenia, oral, 160/80 mg, Day 1, N 15, read-out: AUCτ (mean)",149 µg·h/mL
same,Cmax,"[1]; human, plasma, po, stable schizophrenia, oral, 160/80 mg, Day 1, N 15, read-out: Cmax (mean)",1270 ng/mL
same,Tmax,"[1]; human, plasma, po, stable schizophrenia, oral, 160/80 mg, Day 1, N 15, read-out: tmax (median)",2 h
same,AUC(0-t),"[1]; human, plasma, po, stable schizophrenia, oral, 160/80 mg, Day 22, N 14",660 µg·h/mL
same,AUC,"[1]; human, plasma, po, stable schizophrenia, oral, 160/80 mg, Day 22, N 14, read-out: AUC24 (mean)",35.5 µg·h/mL
same,AUC,"[1]; human, plasma, po, stable schizophrenia, oral, 160/80 mg, Day 22, N 14, read-out: AUC96 (mean)",140 µg·h/mL
same,AUC,"[1]; human, plasma, po, stable schizophrenia, oral, 160/80 mg, Day 22, N 14, read-out: AUCτ (mean)",227 µg·h/mL
same,Cmax,"[1]; human, plasma, po, stable schizophrenia, oral, 160/80 mg, Day 22, N 14, read-out: Cmax (mean)",1880 ng/mL
same,Tmax,"[1]; human, plasma, po, stable schizophrenia, oral, 160/80 mg, Day 22, N 14, read-out: tmax (median)",1.8 h
same,Vd/F,"[1]; human, plasma, stable schizophrenia, oral, 160/80 mg, Day 22, N 14, read-out: Vz/F (mean)",172 L
same,CL/F (mean),[1]; [5],365.5 mL/h
same,"Cav,ss (mean)",[1]; [5],1352.6 ng/mL
same,Ctrough (mean),[1]; [5],950.4 ng/mL
same,t1/2z (mean),[1]; [5],333.8 h
same,half-life,[2],2 to 4 h
same,deaths or serious adverse events,[3]; phase 2,no deaths or serious adverse events
same,discontinuation of study medication due to TEAEs,[3]; phase 2,No subjects discontinued study medication due to TEAEs
same,safety and tolerability,"[3]; phase 2, single doses 40 or 160 mg, add-on to antipsychotics",safe and well-tolerated
same,ventral striatal activation relative to placebo,[4]; Day 1,decrease in ventral striatal activation
same,"posterior mean (SD) for the difference to placebo, fMRI BOLD endpoint","[4]; Day 1, 40 mg",−0.1 (0.21)
same,"posterior mean (SD) for the difference to placebo, fMRI BOLD endpoint","[4]; Day 1, 160 mg",−0.15 (0.14)
same,"posterior mean (SD) for the difference to placebo, fMRI BOLD endpoint","[4]; Day 1, overall",−0.14 (0.11)
same,ventral striatal activation relative to placebo,[4]; Day 14,dose-related increase in activation relative to placebo
